Measured values published in PMC6499816, “Molecular determinants regulating selective binding of autophagy adapters and receptors to ATG8 proteins” (Nature Communications, 2019).
Read-outs that look alike come from different tables or passages of the source. Ends that are not written are not given here.

Experiments:
[1] = target: T1, LC3C (Homo sapiens, UniProt Q9BXW4); experiment: BLI, LIR peptide binding to LC3C; settings: read-out: Kd (best-fit value)
T1 construct: insertion of full-length human GABARAP, GABARAP-L1, LC3A, and LC3C, and EcoRI and NotI restrictions sites for cloning of LC3B and GABARAP-L2; GST (followed by 3C protease site) (N); made in house; host or cells: bacteria (E. coli BL21 (DE3) pLysS is stated for the GST-ATG8 proteins of the overlay assay)
T1 sequence (Q9BXW4 whole entry): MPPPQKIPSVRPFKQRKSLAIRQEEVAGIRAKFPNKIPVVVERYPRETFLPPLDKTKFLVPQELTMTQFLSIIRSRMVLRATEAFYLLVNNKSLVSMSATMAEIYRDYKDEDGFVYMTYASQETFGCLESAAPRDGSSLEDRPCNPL
Experimental: (§1) For recombinant protein expression in bacteria, a modified plasmid of pGEX-6P2 (GE Healthcare) (referred to as pAL) containing an N-terminal […] followed by a 3C protease cleavage site was used.
(§2) Expression was induced by the addition of 0.5 mM IPTG at OD600 = 0.6 and cells were incubated at 25 °C overnight or at 37 °C for 5 h. Harvested cells were lysed in 50 mM Tris-HCl, pH 8.0, 500 mM NaCl, 0.1% Triton X-100, 0.4 mM 4-(2-aminoethyl)-benzenesulfonylfluoride HCl (AEBSF), and 15 µg/ml benzamidine. Fusion protein was batch adsorbed onto Glutathione-Sepharose 4B beads (GE Healthcare). After five washes with wash buffer (50 mM Tris, pH 8.0, 250 mM NaCl, 0.4 mM AEBSF, and 15 µg/ml benzamidine), fusion proteins were eluted in 50 mM Tris, pH 8.0, 2 mM L-glutathione reduced, 0.4 mM AEBSF, and 15 µg/ml benzamidine.
(§3) The biosensor tip surface immobilized with a ligand is incubated with an analyte in solution, resulting in an increase in optical thickness at the biosensor tip and a wavelength shift, which is a direct measure of the change in thickness. […] Ligand-loaded SA biosensors were then incubated with different concentrations of ATG8. All binding experiments were performed in solid-black 96-well plates containing 200 μl of solution (25 mM Tris, pH 7.5, 150 mM NaCl, 0.5 mM TCEP, 0.1% Tween-20, 1 mg/ml bovine serum albumin (BSA)) in each well at 25 °C with an agitation speed of 1000 rpm. Each measurement was repeated two to five times.
(§4) Peptides were synthesized using FMOC (fluorenylmethoxycarbonyl) solid-phase peptide chemistry by the Francis Crick Peptide Chemistry Technology Platform and are listed in Supplementary Table 2.

[2] = target: T2, GABARAP (Homo sapiens, UniProt O95166); experiment: BLI, LIR peptide binding to GABARAP; settings: n=2 independent experiments, read-out: Kd (best-fit value)
T2 construct: insertion of full-length human GABARAP, GABARAP-L1, LC3A, and LC3C, and EcoRI and NotI restrictions sites for cloning of LC3B and GABARAP-L2; GST (followed by 3C protease site) (N); made in house; host or cells: bacteria (E. coli BL21 (DE3) pLysS is stated for the GST-ATG8 proteins of the overlay assay)
T2 sequence (O95166 whole entry): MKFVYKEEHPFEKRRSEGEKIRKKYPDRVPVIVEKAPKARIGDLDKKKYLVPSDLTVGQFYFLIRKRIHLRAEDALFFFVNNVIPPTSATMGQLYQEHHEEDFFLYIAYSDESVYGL
Experimental: as §1, §2, §3, §4

[3] = target: T3, GABARAPL1 (Homo sapiens, UniProt Q9H0R8); experiment: BLI, LIR peptide binding to GABARAPL1
T3 construct: insertion of full-length human GABARAP, GABARAP-L1, LC3A, and LC3C, and EcoRI and NotI restrictions sites for cloning of LC3B and GABARAP-L2; GST (followed by 3C protease site) (N); made in house; host or cells: bacteria (E. coli BL21 (DE3) pLysS is stated for the GST-ATG8 proteins of the overlay assay)
T3 sequence (Q9H0R8 whole entry): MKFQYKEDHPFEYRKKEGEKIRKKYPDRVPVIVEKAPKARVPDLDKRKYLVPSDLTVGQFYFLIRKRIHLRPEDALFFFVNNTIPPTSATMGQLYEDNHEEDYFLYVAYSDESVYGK
Experimental: as §1, §2, §3, §4

[4] = target: T4, GABARAPL2 (Homo sapiens, UniProt P60520); experiment: BLI, LIR peptide binding to GABARAPL2; settings: read-out: Kd (best-fit value)
T4 construct: insertion of full-length human GABARAP, GABARAP-L1, LC3A, and LC3C, and EcoRI and NotI restrictions sites for cloning of LC3B and GABARAP-L2; GST (followed by 3C protease site) (N); made in house; host or cells: bacteria (E. coli BL21 (DE3) pLysS is stated for the GST-ATG8 proteins of the overlay assay)
T4 sequence (P60520 whole entry): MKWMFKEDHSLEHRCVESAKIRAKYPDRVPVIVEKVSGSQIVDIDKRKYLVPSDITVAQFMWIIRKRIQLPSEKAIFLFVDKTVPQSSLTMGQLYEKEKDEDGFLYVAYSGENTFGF
Experimental: as §1, §2, §3, §4

[5] = target: T5, LC3A (Homo sapiens, UniProt Q9H492); experiment: Bio-layer interferometry (BLI), LIR peptide binding to LC3A; settings: read-out: Kd (best-fit value)
T5 construct: insertion of full-length human GABARAP, GABARAP-L1, LC3A, and LC3C, and EcoRI and NotI restrictions sites for cloning of LC3B and GABARAP-L2; GST (followed by 3C protease site) (N); made in house; host or cells: bacteria (E. coli BL21 (DE3) pLysS is stated for the GST-ATG8 proteins of the overlay assay)
Experimental: as §1, §2, §3, §4

[6] = target: T6, LC3B (Homo sapiens, UniProt Q9GZQ8); experiment: BLI, LIR peptide binding to LC3B; settings: read-out: Kd (best-fit value)
T6 construct: insertion of full-length human GABARAP, GABARAP-L1, LC3A, and LC3C, and EcoRI and NotI restrictions sites for cloning of LC3B and GABARAP-L2; GST (followed by 3C protease site) (N); made in house; host or cells: bacteria (E. coli BL21 (DE3) pLysS is stated for the GST-ATG8 proteins of the overlay assay)
Experimental: as §1, §2
The biosensor tip surface immobilized with a ligand is incubated with an analyte in solution, resulting in an increase in optical thickness at the biosensor tip and a wavelength shift, which is a direct measure of the change in thickness. […] Ligand-loaded SA biosensors were then incubated with different concentrations of ATG8. […]

[7] = Fig. 4c, fit of response vs GABARAP concentration
[8] = Fig. 4c, fit of response vs GABARAPL1 concentration, n=2 independent experiments, read-out: Kd (best-fit value)
[9] = fit of response vs GABARAP concentration (μM)
[10] = fit of response vs GABARAPL1 concentration (μM), n=2 independent experiments, read-out: Kd (best-fit value)

For SQKSDEEDFVKIEDLPLKLTI [PCM1 V1959I], the Kd [1] was 6940 nM, the Kd [2, 7] was 1.46 µM and the Kd [3, 8] was 1.07 µM. It also gave a Kd [4] of 7580 nM.
SQKSDEEDFVKIEDLPLKLTI [Γ3] showed a Kd ([3]; immobilised biotinylated LIR peptide, pH 7.5, 25 °C, mean ± s.d., n = 2–4, pictures print no unit, µM as, read-out: Kd, LIR peptide to GABARAPL1) of 1.1 ± 0.1 µM.
DSSCDTDDFVMVPA [ULK1 (aa 349-362)] was tested, and the Kd [5] was 9.23 µM, the Kd [1] was 2780 nM and the Kd [2, 9] was 0.174 µM. The Kd [3, 10] was 0.148 µM and the Kd [4] was 712 nM.
Molecule `CSCC[C@H](NC(=O)[C@@H](NC(=O)[C@H](Cc1ccccc1)NC(=O)[C@H](CC(=O)O)NC(=O)[C@H](CC(=O)O)NC(=O)[C@@H](NC(=O)[C@@H](N)CC(=O)O)[C@@H](C)O)C(C)C)C(=O)N[C@H](C(=O)N1CCC[C@H]1C(=O)N[C@@H](C)C(=O)N[C@@H](CCC(N)=O)C(=O)N[C@@H](Cc1ccccc1)C(=O)N1CCC[C@H]1C(=O)NCC(=O)N[C@@H](CC(=O)O)C(=O)N[C@@H](CC(C)C)C(=O)N[C@H](C(=O)O)C(C)C)C(C)C` [ULK1 (aa 353-369)] has a Kd [3, 10] of 0.102 µM and a Kd [4] of 583 nM.
SQKSDEEDFVIVEDLPLKLTI [PCM1 K1967I] gave a Kd [5] of 3.93 µM, a Kd [1] of 384 nM and a Kd [3, 8] of 0.131 µM.
Work on DDFVMVPAQFPGDLV [ULK1 (aa 355-369)] yielded a Kd [1] of 7840 nM, a Kd [2, 9] of 0.288 µM and a Kd [3, 10] of 0.243 µM. The Kd [4] was 2210 nM.
Molecule DSSCDTDDFVMV [ULK1 (aa 349-360)] has a Kd [5] of 2.92 µM, a Kd [6] of 8.47 µM and a Kd [1] of 2210 nM. The Kd [2, 9] was 0.218 µM, the Kd [3, 10] was 0.22 µM and the Kd [4] was 1090 nM.
DSSCDTDDFVMVPAQF [ULK1 (aa 349-364)] gave a Kd [5] of 8.37 µM, a Kd [1] of 2230 nM and a Kd [3, 10] of 0.161 µM. It also gave a Kd [4] of 534 nM.
Work on SQKSDEEDFVKVEDLALKLTI [PCM1 P1962A] yielded a Kd [1] of 10800 nM, a Kd [2, 7] of 0.994 µM and a Kd [3, 8] of 0.879 µM. For the same molecule, the Kd [4] was 10500 nM.
“SQKSDEEDFDIIEDLPLKLTI [PCM1 V1956D/ K1957I/ V1958I]” was tested, and the Kd [5] was 4.61 µM, the Kd [1] was 2350 nM and the Kd [2, 7] was 1.39 µM. It also gave a Kd [3, 8] of 0.907 µM.
With YRPPDDAVFDIITDEELCQIQ [FYCO1 WT] the Kd [5] was 0.778 µM, the Kd [6] was 1.13 µM and the Kd [1] was 3040 nM. For the same molecule, the Kd [2, 7] was 1.73 µM and the Kd [3, 8] was 0.9 µM.
Work on SQKSDEEDFDKVEDLPLKLTI [PCM1 V1956D] yielded a Kd [2, 7] of 7.72 µM and a Kd [3, 8] of 5.19 µM.
SQKSDEEDFVKVTDLPLKLTI [PCM1 E1959T] gave a Kd [3, 8] of 2.89 µM.
